Results from patent publication US10967023B2, “Preparation of a chinese medicinal composition including ginseng, ginkgo leaf and stigma croci” (priority 2014, dated 2021).

Columns and labels:
[1] = tested on: ADP induced platelet aggregation of rats; test: Platelet aggregation inhibition test (ADP induced, PRP of dosed rats); type: in vivo, SD rats; details: ADP 5 μmol/L
Procedure: (§1) The same volume of saline was given to the Blank control group. The rats were administered once a day for 7 days.
Platelet aggregation inhibition test: 1 h after 7 days of administration to the rats of the groups, the rats were hypnotized according to the above method, a tube was inserted into the common carotid artery to collect blood, the blood was added 3.8% sodium citrate in a ratio of 1:9 to become anticoagulant, when it was centrifuged for 5 minutes at 500 rpm, the upper portion of the plasma was taken to be the platelet-rich plasma (PRP), the remaining part was centrifuged again for 15 minutes at 3,500 rpm, the supernatant was platelet poor plasma (the PPP), the number of platelet of PRP was counted with platelet counting instrument, the number of platelet of PRP was adjusted with PPP to about […]. The temperature of the sample tube was kept at 37° C. for 3 minutes, then 5 μL ADP was added (final concentration 5 μmol/L), stirring speed of the stirrer was 500 r/min, the space between the rows of the movement of the recording pen was recorded after adding, and the aggregation rate was calculated according to the following formula: Aggregation rate(%)=the itinerary of adding ADP×100%/0˜100% of the itinerary

[2] = tested on: thrombosis of rats; test: Artery-vein shunt thrombosis in rats (thrombus formation in vivo); design: species or system SD rats; details: compositions 3 g/kg, aspirin 0.0044 g/kg
Procedure: as §1
Experiments of thrombus formation, in vivo: 1 h after 7 days of administration, the rats of the groups were hypnotized through intraperitoneal injection with 0.8% sodium pentobarbital, with a dose of 40 mg/kg referring to the artery-vein shunt thrombosis method [Zhang Jun Tian. Modern pharmacology experimental methods. Beijing: Beijing Medical University Press, 1998; 1216-1217], right common carotid artery and left external jugular vein were separated. Three sections of polyethylene plastic pipe were taken, the diameter of the middle section was 2 mm, the length was about 8.5 cm, the diameter of the two plastic pipe of the two ends were 1.5 mm, the length were 10 cm respectively. A No 4 operation silk thread that was weighed previously with a length of about 7 cm was placed in the plastic pipe in the middle section, wherein one end of the thread with the length of 0.5 cm was exposed to the pipe to fix the position, and a silk thread with a length of 6.5 cm was kept in the pipe, the polyethylene plastic pipe was filled with heparin solution, one end of the plastic tube was inserted into the left external jugular vein, the other end of the plastic tube was inserted into the right common carotid artery, then the bloodstream was opened immediately. […]

[3] = tested on: SOD, MDA of brain tissue; test: Activity of SOD and content of MDA in the brains of VaD rats; type: in vivo, SD rats; details: 2 months of administration, compositions 3 g/kg, Huperzine 0.00006 g/kg, Tanakan 0.02 g/kg
Procedure: (§2) The sham group and the model group were given gavages of distilled water of the same volume. 2 months, 3 months after the models were created (1 month and 2 months after the administration), the time of the duration of MORRIS water maze were measured. After the last measurement, blood was taken from abdomens aorta, the brain was taken quickly, and the left hemisphere was solidified with liquid nitrogen. In ice bath, with 0.15M HCLO4 homogenates (1 ml was added for 100 mg brain weight) 14000×g 4° C., centrifuged for 20 min, the supernatant was taken, filtered with 0.22 μm membrane, 10 μl was fed into the auto sampler, the content of Ach was determined using HPLC; right hemisphere, 4 for each group, were solidified with formalin, dehydrated, embedded, sliced, HE dyed for pathological examination, homogenates of six brain tissue, AchE, SOD activity and MDA content (colorimetric method) were measured; Indicators such as neuropeptide Y, β-EP in plasma were determined (RIA). The results were analyzed statistically (t test).

[4] = tested on: scopolamine hydrobromide induced acquired memory disorder model mice; test: Scopolamine hydrobromide induced acquired memory disorder model mice, jumping platform test; type: in vivo, ICR mice; details: scopolamine 6 mg/kg mice; compositions 4 g/kg, Huperzine 0.00008 g/kg, Tanakan 0.03 g/kg, 15 days
Procedure: The animals were intragastric administered once a day at a dose of 20 mL/kg, distilled water was given to blank control group and model group, one time a day, lasted for 15 days, 50 minutes after the administration on the 14th day, saline was given to the mice of blank control group through intraperitoneal injection in a volume of 10 ml/kg, the rest animals were given scopolamine through injection (6 mg/kg). 10 minutes later, the mice were placed on the jumping program automatic controller, to adapt for 3 minutes, then power on, the mice were stimulated by electric shock for 5 times, when the mice were stimulated, they jump to the diving platform to avoid electric shock, trained 5 minutes to obtain memory. 60 minutes after the administration on the 15th day, the animals were placed on the jumping program automatic controller, the number of times that the mice left the jump platform and received electric shock and the time of occurrence (the incubation period) were determined (number of errors). The results were analyzed statistically (t test).

[5] = tested on: SOD, GSH-Px, MDA, NO of brain tissue; test: Activities of SOD, GSH-Px and contents of MDA, NO of brain tissue (ischemia-reperfusion + D-galactose mice); type: in vivo, ICR mice; details: 8 weeks, compositions 4 g/kg, Huperzine 0.00008 g/kg, Tanakan 0.03 g/kg
Procedure: (§3) The mice were anaesthetized with chloral hydrate, incisions were made in the necks, ischemia and reperfusion surgery was applied: bilateral common carotid arteries were separated, were clipped by bulldog clamp for 20 minutes, loosened for 2 minutes, then were clipped again for 20 minutes then loosened, at the same time, the tails of the mice were cut, 0.5 mL blood was collected, repeated cerebral ischemia-reperfusion injury was formed, sutured the wounds of the rats then fed them in cages. 7 days after the operation, D-galactose (100 mg/kg, 10 mL/kg) was given to the mice through subcutaneous injection on the back, and simultaneously, the mice were intragastric administered (20 mL/kg) once a day, lasted for 8 weeks; for the sham group, common carotid arteries were separated without clipping, the same volume of saline was injected through subcutaneous injection on the back; for D-galactose group, common carotid arteries were separated without clipping, D-galactose (100 mg/kg, 10 mL/kg) was injected through subcutaneous injection on the back; the ischemia reperfusion group was received an ischemia reperfusion operation, the same volume of saline was injected through subcutaneous injection on the back. The sham group, complex model group, D-galactose group were given gavages of distilled water of the same volume.
(§4) 8 weeks after the administration, the mice were trained for 3 days in the MRRIS water maze, two times a day, the learning and memory behavior were determined on the 4th day, on the 5th day, the heads were cut to take the brains, the brains were formulated into 10% homogenates with saline, the activities of AchE, SOD, GSH-Px, the contents of biochemical indicators such as MDA, NO in the brain tissues were determined (colorimetry). The results were analyzed statistically (t test)

[6] = tested on: reserpine induced acquired memory disorder model mice; test: Reserpine induced acquired memory disorder model mice, jumping platform test; type: in vivo, ICR mice; details: reserpine 0.5 mg/kg mice; compositions 4 g/kg, Huperzine 0.00008 g/kg, Tanakan 0.03 g/kg, 15 days
Procedure: (§5) Experimental grouping was the same as that of test example 5.
The animals were intragastric administered once a day at a dose of 20 mL/kg, distilled water was given to the blank control group and the model group, one time a day, lasted for 15 days. After the administration on the 14th day, saline was given immediately to the mice of the blank control group through back and neck subcutaneous injection in a volume of 10 ml/kg, the rest animals were given reserpine hydrochloride (0.5 mg/kg) through back and neck subcutaneous injection. 60 minutes after the injection, the mice were placed on the jumping program automatic controller, to adapt for 3 minutes, then power on, the mice were stimulated by electric shock for 5 times, when the mice were stimulated, they jump to the diving platform to avoid electric shock, trained 5 minutes to obtain memory. 60 minutes after the administration on the 15th day, the animals were placed on the jumping program automatic controller, the number of errors and the incubation period of mice within 5 minutes were determined. The results were analyzed statistically (t test).

[7] = tested on: Ach in brains of VaD rats; test: Content of Ach in brains of VaD rats (HPLC); type: in vivo, SD rats; details: 2 months of administration, compositions 3 g/kg, Huperzine 0.00006 g/kg, Tanakan 0.02 g/kg
Procedure: Mobile phase: Na2HPO4 (100 mmol/L), TMACl (0.5 mmol/L), OSA (2.0 mmo/L), MB reagent (0.005% v/v), diluted with redistilled water, 85% PH was adjusted to8.00 by H3PO4, filtered by 0.22 μm aqueous membrane.
Chromatographic conditions: ESA582 type binary pump system, ESA ACH-3 column (150×3 mm 5 μm I.D.), former ESA immobilized enzyme reactor before columns (ESA ACH-SPR, 3 cm), flow rate, 0.35 mL/min, column temperature, 35° C.
Test conditions: 5600 A electrochemical detector; 5040 type solid porous electrode (platinum working electrode, a solid state palladium reference electrode) potential: +300 mV.
The results were analyzed statistically (t test).

[8] = tested on: sodium nitrite induced consolidate memory disorder mice; test: Sodium nitrite induced consolidate memory disorder model mice, jumping platform test; type: in vivo, ICR mice; details: sodium nitrite 120 mg/kg mice; compositions 4 g/kg, Huperzine 0.00008 g/kg, Tanakan 0.03 g/kg, 15 days
Procedure: as §5
The animals were intragastric administered once a day at a dose of 20 mL/kg, distilled water was given to the animals of blank control group and model group, one time a day, lasted for 15 days. 60 minutes after the administration on the 14th day, the mice were placed on the jumping program automatic controller, to train for 5 minutes, and the mice were stimulated by electric shock for 5 times. After the treatment, saline was given immediately to the mice of comparative group through back and neck subcutaneous injection in a volume of 10 ml/kg, sodium nitrite (120 mg/kg) were injected to the rest of the animals. 60 minutes after the administration on the 15th day, the animals of the groups were placed on the jumping program automatic controller, the number of errors and the incubation period of mice within 5 minutes were determined. The results were analyzed statistically (t test).

[9] = tested on: hippocampal pyramidal cell; test: Pathological examination of hippocampus of VaD rats (HE); type: in vivo, SD rats; details: 2 months of administration
Procedure: as §2

[10] = tested on: ischemic reperfusion and D-galactose induced learning and memory impairment mice; test: MORRIS water maze in mice with ischemic reperfusion and subcutaneous D-galactose induced learning and memory impairment; type: in vivo, ICR mice; details: 8 weeks
Procedure: as §3, §4

[11] = tested on: VaD rats; test: MORRIS water maze in VaD rats (permanent ligation of bilateral common carotid artery); type: in vivo, SD rats
Procedure: as §2

[12] = tested on: plasma NPY, β-EP; test: Plasma NPY, β-EP of VaD rats (RIA); type: in vivo, SD rats; details: 2 months of administration, compositions 3 g/kg, Huperzine 0.00006 g/kg, Tanakan 0.02 g/kg
Procedure: as §2

[13] = ischemia-reperfusion + D-galactose mice, compositions 4 g/kg, Huperzine 0.00008 g/kg, Tanakan 0.03 g/kg

## CC(=O)Oc1ccccc1C(=O)O [Aspirin]
[1]; rats dosed 7 days (compositions 3 g/kg, aspirin 0.0044 g/kg), PRP
  Platelet aggregation: 23.27 ± 3.06 %
[1]; rats dosed 7 days, versus control group
  aggregation inhibition rate: 49.57%
[2]; Rattus norvegicus, 168 h, 7 days, versus control group, read-out: Inhibition rate (thrombosis)
  inhibition at 4.4 mg/kg: 30.9%
[2]; once a day 7 days, artery-vein shunt 20 minutes
  Wet weights of thrombus: 0.056 ± 0.011 g

## C/C=C1\[C@H]2C=C(C)C[C@]1(N)c1ccc(=O)[nH]c1C2 [Huperzine, huperzine A]
[3]
  MDA: 2.194 ± 0.251 μmol/mgprot
  SOD: 51.7 ± 9.6 U/mgprot
[4]
  number of errors Within 5 minutes: 0.6 ± 0.6
  the incubation period Within 5 minutes: 281.6 ± 39.4 s
[5]
  GSH-Px: 28.58 ± 2.87 U/mgprot
  MDA: 4.651 ± 0.832 nmol/mgprot
  NO: 1.442 ± 0.295 nmol/mgprot
  SOD: 159.8 ± 21.2 U/mgprot
[6]
  number of errors Within 5 min: 0.6 ± 0.9
  the incubation period Within 5 min: 243.1 ± 38.4 s
[7]
  Ach: 1992.6 ± 590.0 ng/g wet weight of brain tissue
[8]
  The incubation time Within 5 min: 229.1 ± 94.6 s
  number of errors Within 5 min: 0.5 ± 0.7
[9]
  Pathological examination: arrangement of the hippocampal pyramidal cells: slightly loose
[10]; [13]
  Length of path (MORRIS water maze): 355.8 ± 234.1 cm
  Time of duration (MORRIS water maze): 21.7 ± 14.6 s
[10]; score: straight line type 1 point, tendency type 2, edge type 3, random type 4, mice
  Search strategy (MORRIS water maze): 2.4 ± 1.0 points
[11]; 1 month of administration, compositions 3 g/kg, Huperzine 0.00006 g/kg, Tanakan 0.02 g/kg
  time of duration in MORRIS water maze, 2 months after the model was created: 24.6 ± 19.0 s
[11]; 2 months of administration, compositions 3 g/kg, Huperzine 0.00006 g/kg, Tanakan 0.02 g/kg
  time of duration in MORRIS water maze, 3 months after the model was created: 9.0 ± 5.2 s
[11]; before administration
  time of duration in MORRIS water maze, 1 month after the model was created: 58.6 ± 26.6 s
[12]
  NPγ: 847.7 ± 189.1 pg/mL
  β-EP: 1032.9 ± 109.5 pg/mL
